Measurements as given in patent publication US12636259B2, “Transdermal absorption preparation” (Sumitomo Pharma Co., Ltd., priority 2020, dated 2026).

Assay: Saturation solubility measurement of compound A in additives
Assay type: physicochemical
Settings: room temperature
Experimental: Various additives were weighed into a vial, compound A was added until it was no longer dissolved, and the mixture was stirred overnight at room temperature. The mixture was filtered using a 0.45 μm PTFE filter and the concentration of compound A in the filtrate was quantified by high performance liquid chromatography (ODS column, UV detector). When the concentration of compound A exceeded 20%, the addition of compound A was stopped.

saturation solubility of compound A (tandospirone) (additive: N-methyl-2-pyrrolidone): 15.4% | saturation solubility of compound A (tandospirone) (additive: diisopropyl adipate): 2.0% | saturation solubility of compound A (tandospirone) (additive: dipropylene glycol): 1.6% | saturation solubility of compound A (tandospirone) (additive: isopropyl myristate): 0.6% | saturation solubility of compound A (tandospirone) (additive: lactic acid, stirred overnight, drug addition stopped when solubility exceeded 20%): not less than 20% | saturation solubility of compound A (tandospirone) (additive: lauromacrogol (4)): 2.0% | saturation solubility of compound A (tandospirone) (additive: levulinic acid, drug addition stopped when solubility exceeded 20%): not less than 20% | saturation solubility of compound A (tandospirone) (additive: oleic acid, drug addition stopped when solubility exceeded 20%): not less than 20% | saturation solubility of compound A (tandospirone) (additive: oleyl alcohol): 1.0% | saturation solubility of compound A (tandospirone) (additive: polysorbate 20): 1.4% | saturation solubility of compound A (tandospirone) (additive: polysorbate 80): 1.4% | saturation solubility of compound A (tandospirone) (additive: propylene glycol fatty acid diester (C8)): 1.3% | saturation solubility of compound A (tandospirone) (additive: propylene glycol fatty acid ester (C8)): 5.0% | saturation solubility of compound A (tandospirone) (additive: propylene glycol fatty acid ester (C12)): 5.9% | saturation solubility of compound A (tandospirone) (additive: sorbitan monolaurate, measured as mixed solution isopropyl myristate/sorbitan monolaurate = 50/50): 2.3%
SMILES: O=C1[C@@H]2[C@H]3CC[C@H](C3)[C@@H]2C(=O)N1CCCCN1CCN(c2ncccn2)CC1 [compound A, (1R,2S,3R,4S)—N-[4-[4-(pyrimidin-2-yl)piperazin-1-yl]butyl]-2,3-bicyclo[2.2.1]heptan dicarboxyimide]
